The record followed here is paper PMC10497682, “Synthesis and cytotoxicity evaluation of novel 1,8-acridinedione derivatives bearing phthalimide moiety as potential antitumor agents” (Scientific Reports, 2023).

Format in all cases: cell-based
Assay [1] concerns p38. The assay is described as follows: qRT-PCR mRNA expression of p38 in A431 cells. Conditions: IC50 concentration, 2 days, fold vs untreated control. The method, then:
(§1) In this study, the impact of potent antitumor compounds (8c, 8f, 8h, 8i, and 8L) on the expression levels of four tumor regulating genes, namely Topoisomerase II beta (TOP2B), mitogen-activated protein kinase (MAP K) (p38), tumor protein interacted with the mouse double minute 2 homolog (p53), and Epidermal growth factor receptor (EGFR), was investigated in skin cancer cells (A431). Evaluation the relative changes in mRNA expression levels of four key genes by performing quantitative real-time PCR (qRT-PCR) before and after treatment for 2 days with IC50 concentrations of compounds (8c, 8f, 8h, 8i, and 8L). Total RNA was extracted from the cells using the Gene JET RNA Purification Kit (Thermo Scientific, USA), followed by cDNA synthesis using the cDNA Synthesis Kit (Thermo Scientific, USA) protocol. SYBR green kit and specific primers (Forward/Reverse) were used for qRT-PCR: 5′-[…]-3’/5’-[…]-3′ for p38, 5′-[…]-3′/5′-[…]-3′ for p53, 5’-[…]-3’/5’-[…]-3’ for TOP2B, and 5’-[…]-3’/5’-[…]-3’ for EGFR. The expression levels of the tested genes were determined by using the 2^−ΔΔCT equation to assess any changes in upregulation and/or downregulation of gene expression.
(Real-time PCR tracks product formation cycle by cycle.)

For assay [2], the system named is EGFR. The assay is described as follows: qRT-PCR mRNA expression of EGFR in A431 cells. The following applies: IC50 concentration, 2 days, fold vs untreated control. As to the method:
as §1

In assay [3] the test system is A431 cells. The experiment in a line: Morphological modifications under phase-contrast microscope, A431. Conditions: IC50 dose, 48 h, vs untreated control. The method, then: (§2) The present study aimed to investigate the in vitro effects of five synthetic compounds (8c, 8f, 8h, 8i, and 8L) on the morphological modifications of four different cancer cell lines (A431, A549, H460, and MDA-MB-231) compared with untreated control cells (Fig. 5). The cells were treated with the compounds at IC50 doses for 48 h, and the morphological changes were observed under a phase-contrast microscope.
(§3) All cells were treated with compounds (8c, 8f, 8h, 8i and 8L) at IC50 doses for 48 h as compared to untreated control cells.
(§4) The cell lines were obtained from American Type Culture Collection (ATCC). With the usage of the Thiazolyl Blue Tetrazolium Bromide (MTT) method, various concentrations of the compounds (8c, 8f, 8h, 8i, and 8L) were evaluated for their cytotoxicity against the HSF, H460, A431, A549, and MDA-MB-231 cell lines. […] 200 µL dimethyl sulfoxide (DMSO) was added to each well and shook again for 5 min at 150 rpm, and then the viability of the cells was calculated by measuring the optical density at 630 nm subtracted from optical density at 570 nm. The relative cell viability (%) was determined as the given formula: Therelativecellviability%=ODS/ODC×100 whereas ODS is the mean optical density of sample, ODC is the mean OD of control group. […]

The subject of assay [4] is MDA-MB-231 cells. The experiment in a line: Morphological modifications under phase-contrast microscope, MDA-MB-231. Conditions: IC50 dose, 48 h, vs untreated control. The method, then:
as §2, §3, §4

For assay [5], the system named is A549 cells. The assay is described as follows: Morphological modifications under phase-contrast microscope, A549. The following applies: IC50 dose, 48 h, vs untreated control. As to the method: as §2, §3, §4
Assay [6] relates to lung cancer cells (H460). The assay is described as follows: MTT cytotoxicity assay, H460. Conditions: for selectivity index (SI): mean IC50 against normal cells (HSF) divided by IC50 against H460. As to the method:
(§5) The cell lines were obtained from American Type Culture Collection (ATCC). With the usage of the Thiazolyl Blue Tetrazolium Bromide (MTT) method, various concentrations of the compounds (8c, 8f, 8h, 8i, and 8L) were evaluated for their cytotoxicity against the HSF, H460, A431, A549, and MDA-MB-231 cell lines. In brief HSF, H460, A431, A549 and MDA-MB-231 cell lines cells (10 × 10^3) were cultured in 96 well plate for overnight at 37 °C, 5% CO2 and 88% humidity. The total volume of used DMEM supplemented medium and the synthesized compounds supernatant was 200 µL with final concentrations of 25, 50, 100, 150 and 200 µg/ml. The plate was incubated at 37 °C, 5% CO2 for 48 h. After incubation, debris and dead cells were removed by washing three times with fresh medium. Twenty mL of MTT solution (5 mg/ml of MTT in PBS buffer) was added to each well and shook for 5 min at 150 rpm to thoroughly mix the MTT into the media. The cells were incubated at 37 °C and 5% CO2 for 3–5 h to metabolize MTT by viable cells. 200 µL dimethyl sulfoxide (DMSO) was added to each well and shook again for 5 min at 150 rpm, and then the viability of the cells was calculated by measuring the optical density at 630 nm subtracted from optical density at 570 nm. The relative cell viability (%) was determined as the given formula: Therelativecellviability%=ODS/ODC×100 whereas ODS is the mean optical density of sample, ODC is the mean OD of control group. […] Tumor-selectivity index (TS value) was determined by dividing the mean IC50 against normal cells by the mean IC50 against tumor cells. Thus obtained TS values seem to reflect the in vivo antitumor activity even though these cells were different types of cells (epithelial oral squamous cell carcinoma cell lines versus mesenchymal normal oral cells).
(In general: Tetrazolium dyes change colour on reduction, which living cells bring about.)

Assay [7] concerns H460 cells. The assay is described as follows: Morphological modifications under phase-contrast microscope, H460. The following applies: IC50 dose, 48 h, vs untreated control. The method, then:
as §2, §3, §4

In assay [8] the test system is skin cancer cells (A431). The assay is described as follows: MTT cytotoxicity assay, A431. The following applies: for selectivity index (SI): mean IC50 against normal cells (HSF) divided by IC50 against A431. The method, then: as §5
Assay [9] relates to p53. The assay is described as follows: qRT-PCR mRNA expression of p53 in A431 cells. The following applies: IC50 concentration, 2 days, fold vs untreated control. As to the method:
as §1

For assay [10], the system named is TOP2B. The assay is described as follows: qRT-PCR mRNA expression of TOP2B in A431 cells. The following applies: IC50 concentration, 2 days, fold vs untreated control. The method, then:
as §1

The subject of assay [11] is breast cancer cells (MDA-MB-231). The assay is described as follows: MTT cytotoxicity assay, MDA-MB-231. The method, then: as §5, with “Twenty mL of MTT solution (5 mg/ml of MTT in PBS buffer) was added to each well and shook for 5 min at 150 rpm to thoroughly mix the MTT into the media. The cells were incubated at 37 °C and 5% CO2 for 3–5 h to metabolize MTT by viable cells.” left out, “Thus obtained TS values seem to reflect the in vivo antitumor activity even though these cells were different types of cells (epithelial oral squamous cell carcinoma cell lines versus mesenchymal normal oral cells).” left out

For assay [12], the system named is lung cancer cells (A549). The experiment in a line: MTT cytotoxicity assay, A549. As to the method: as §5, with “Twenty mL of MTT solution (5 mg/ml of MTT in PBS buffer) was added to each well and shook for 5 min at 150 rpm to thoroughly mix the MTT into the media. The cells were incubated at 37 °C and 5% CO2 for 3–5 h to metabolize MTT by viable cells.” left out, “Thus obtained TS values seem to reflect the in vivo antitumor activity even though these cells were different types of cells (epithelial oral squamous cell carcinoma cell lines versus mesenchymal normal oral cells).” left out

≈ marks a conversion by molar mass, not a printed value.

In the case of `CC1(C)CC(=O)C2=C(C1)N(CCOC(=O)CN1C(=O)c3ccccc3C1=O)C1=C(C(=O)CC(C)(C)C1)C2c1ccc(-c2ccccc2)cc1` [Compound 8f, 2-(9-([1,1'-biphenyl]-4-yl)-3,3,6,6-tetramethyl-1,8-dioxo-2,3,4,5,6,7,8,9-octahydroacridin-10(1H)-yl) ethyl 2-(1,3-dioxoisoindolin-2-yl) acetate], the “relative change in mRNA expression level of p38” value in assay [1] is “highest relative change”. Also, in assay [2], the “relative change in mRNA expression level of EGFR” value was “lowest relative change”. The morphological modifications result in assay [3] is “significant cell damage and alteration in the morphology”; in assay [4] it was “significant cell damage and alterations in cell morphology”; in [5] it was “significant cell damage and alterations in the morphology”; in assay [7] it was “noticeable cell damage and alterations in the morphology”. The half-inhibitory concentration (IC50) (commonly the concentration that gives 50% inhibition) came out at 24.6 ± 3.4 µg/mL in [6] (Homo sapiens, NCI-H460, H460 cells, MTT, 48 h, mean ± SEM) and 11.9 ± 3.3 µg/mL in assay [8] (Homo sapiens, A-431, A431 cells, MTT, 48 h, mean ± SEM). Moreover, the results for the “selectivity index (SI)” value in [6] and in assay [8] were 7.7 and 15.9, respectively. The “relative change in mRNA expression level of p53” value in assay [9] was “highest relative change”. For the same compound, the “relative change in mRNA expression level of TOP2B” value in [10] is on record as “lowest relative change”.

For the compound `COc1ccc(C2C3=C(CC(C)(C)CC3=O)N(CCOC(=O)CN3C(=O)c4ccccc4C3=O)C3=C2C(=O)CC(C)(C)C3)cc1OC` [Compound 8h, 2-(9-(3,4-dimethoxyphenyl)-3,3,6,6-tetramethyl-1,8-dioxo-2,3,4,5,6,7,8,9-octahydroacridin-10(1H)-yl) ethyl 2-(1,3-dioxoisoindolin-2-yl) acetate], the “relative change in mRNA expression level of EGFR” value in assay [2] is “lowest relative change”. For the same compound, the “selectivity index (SI)” value in [6] was determined as 3.5; in assay [8] it was 4.5. For the same compound, the “relative change in mRNA expression level of TOP2B” value in [10] is “lowest relative change”.

Regarding `CC1(C)CC(=O)C2=C(C1)N(CCOC(=O)CN1C(=O)c3ccccc3C1=O)C1=C(C(=O)CC(C)(C)C1)C2c1ccc(F)cc1` [Compound 8c, 2-(9-(4-fluorophenyl)-3,3,6,6-tetramethyl-1,8-dioxo-2,3,4,5,6,7,8,9-octahydroacridin-10(1H)-yl) ethyl 2-(1,3-dioxoisoindolin-2-yl) acetate], the morphological modifications result in assay [5] was “significant cell damage and alterations in the morphology”; in [7], “noticeable cell damage and alterations in the morphology”.

For `CC1(C)CC(=O)C2=C(C1)N(CCOC(=O)CN1C(=O)c3ccccc3C1=O)C1=C(C(=O)CC(C)(C)C1)C2c1ccc2c(c1)OCO2` [Compound 8L, 2-(9-(benzo[d][1,3]dioxol-5-yl)-3,3,6,6-tetramethyl-1,8-dioxo-2,3,4,5,6,7,8,9-octahydroacridin-10(1H)-yl)ethyl 2-(1,3-dioxoisoindolin-2-yl)acetate], the IC50 in assay [11] (Homo sapiens, MDA-MB-231 cells, MTT, 48 h, mean ± SEM) amounted to 27.7 ± 2.7 µg/mL (≈ 44.3 µM). Besides, the “selectivity index (SI)” value in [11] (mean IC50 against normal cells (HSF) divided by IC50 against MDA-MB-231) is 4.4. Moreover, in [4], the morphological modifications entry is “significant cell damage and alterations in cell morphology”.

Compound `COc1ccc(C2C3=C(CC(C)(C)CC3=O)N(CCOC(=O)CN3C(=O)c4ccccc4C3=O)C3=C2C(=O)CC(C)(C)C3)cc1` [Compound 8i, 2-(9-(4-methoxyphenyl)-3,3,6,6-tetramethyl-1,8-dioxo-2,3,4,5,6,7,8,9-octahydroacridin-10(1H)-yl) ethyl 2-(1,3-dioxoisoindolin-2-yl) acetate] gave an IC50 in [12] (Homo sapiens, A549 cells, MTT, 48 h, mean ± SEM) of 37.4 ± 4.5 µg/mL. In addition, in assay [12] (mean IC50 against normal cells (HSF) divided by IC50 against A549), the “selectivity index (SI)” value is recorded as 4.0. In addition, the morphological modifications entry in [3] was “significant cell damage and alteration in the morphology”.
